From ChEMBL document CHEMBL1157116, “Synthesis of novel benzocoumarin derivatives as lipid lowering agents” (2010)

Key:
Format in all cases: functional
Parameters in all cases: scale not given: the % may be the effect or the level left
[1] = Antioxidant activity assessed as inhibition of xanthine-xanthine oxidase generated superoxide anion radical production assessed as formazone formation at 20 ug/ml after 30 mins by spectrophotometric analysis
Rattus norvegicus [2] = assay: Antihyperlipidemic activity in Charles Foster rat assessed as reduction of triton WR-1339-induced plasma total cholesterol level at 25 mg/kg, po after 18 hrs by spectrophotometric analysis
[3] = Antioxidant activity assessed as inhibition of xanthine-xanthine oxidase generated superoxide anion radical production assessed as formazone formation at 100 ug/ml after 30 mins by spectrophotometric analysis
Rattus norvegicus [4] = assay: Antihyperlipidemic activity in Charles Foster rat assessed as reduction of triton WR-1339-induced plasma phospholipid level at 100 mg/kg, po after 18 hrs by spectrophotometric analysis
Rattus norvegicus [5] = assay: Antihyperlipidemic activity in Charles Foster rat assessed as reduction of triton WR-1339-induced plasma phospholipid level at 25 mg/kg, po after 18 hrs by spectrophotometric analysis
Rattus norvegicus [6] = assay: Antihyperlipidemic activity in Charles Foster rat assessed as reduction of triton WR-1339-induced plasma triglyceride level at 25 mg/kg, po after 18 hrs by spectrophotometric analysis
[7] = Antioxidant activity assessed as inhibition non-enzymatic reactants generated hydroxyl radical production at 100 ug/ml after 90 mins by spectrophotometry
Rattus norvegicus [8] = assay: Antihyperlipidemic activity in Charles Foster rat assessed as reduction of triton WR-1339-induced plasma triglyceride level at 100 mg/kg, po after 18 hrs by spectrophotometric analysis
Rattus norvegicus [9] = assay: Antihyperlipidemic activity in Charles Foster rat assessed as reduction of triton WR-1339-induced plasma total cholesterol level at 100 mg/kg, po after 18 hrs by spectrophotometric analysis
[10] = Antioxidant activity assessed as inhibition microsomal lipid peroxidation assessed as malondialdehyde formation at 100 ug/ml by thiobarbituric acid test; conditions: Microsome
Rattus norvegicus [11] = assay: Antihyperlipidemic activity in Charles Foster rat assessed as reduction of triton WR-1339-induced plasma post heparin lipolytic activity at 100 mg/kg, po after 18 hrs by spectrophotometric analysis
[12] = Antioxidant activity assessed as inhibition microsomal lipid peroxidation assessed as malondialdehyde formation at 20 ug/ml by thiobarbituric acid test; conditions: Microsome
[13] = Antioxidant activity assessed as inhibition non-enzymatic reactants generated hydroxyl radical production at 20 ug/ml after 90 mins by spectrophotometry

Oc1ncnc2[nH]ncc12
Activity [1]: 86%

Cc1cc(=O)oc2c1ccc1c(OCc3ccccc3)cccc12
Activity (Rattus norvegicus [2]): 26% | Activity [3]: 40% | Activity (Rattus norvegicus [4]): 29% | Activity (Rattus norvegicus [5]): 24% | Activity (Rattus norvegicus [6]): 23% | Activity [7]: 41% | Activity (Rattus norvegicus [8]): 28% | Activity (Rattus norvegicus [9]): 28% | Activity [10]: 38% | Activity (Rattus norvegicus [11]): 18%

Cc1cc(=O)oc2c1ccc1c(OC(C)c3ccccc3)cccc12 (stereo not drawn)
Activity (Rattus norvegicus [4]): 26% | Activity (Rattus norvegicus [8]): 22% | Activity (Rattus norvegicus [9]): 23%

CCOC(=O)COc1cccc2c1ccc1c(C)cc(=O)oc12
Activity [3]: 28% | Activity [7]: 38% | Activity [10]: 37%

Cc1c(C)c2c(c(C)c1O)CC[C@@](C)(CCC[C@H](C)CCC[C@H](C)CCCC(C)C)O2
Activity [12]: 45%

OC[C@@H](O)[C@@H](O)[C@H](O)[C@H](O)CO
Activity [13]: 48%

Cc1ccc(C)c(OCCCC(C)(C)C(=O)O)c1 [GEMFIBROZIL]
Activity (Rattus norvegicus [4]): 35% | Activity (Rattus norvegicus [8]): 31% | Activity (Rattus norvegicus [9]): 36% | Activity (Rattus norvegicus [11]): 24%
